Laboratory results taken from patent US8945825B2, “Homogeneous activity test for determining enzymatic reactions” (Siemens Healthcare Diagnostics Products GmbH, priority 2010, dated 2015).

Key:
tc-FSAP = biological target: T1, tc-FSAP (Homo sapiens, UniProt Q14520); assay: tc-FSAP inhibition assay (LOCI signal, peptide substrate IV); assay type: biochemical; conditions: for signal: measured value after 15 minutes
T1 construct: directed against the light chain of FSAP; Two-chain FSAP (tc-FSAP) was prepared, as described by Kannemeier et al; made in house
T1 sequence (Q14520 314-560 limits assumed): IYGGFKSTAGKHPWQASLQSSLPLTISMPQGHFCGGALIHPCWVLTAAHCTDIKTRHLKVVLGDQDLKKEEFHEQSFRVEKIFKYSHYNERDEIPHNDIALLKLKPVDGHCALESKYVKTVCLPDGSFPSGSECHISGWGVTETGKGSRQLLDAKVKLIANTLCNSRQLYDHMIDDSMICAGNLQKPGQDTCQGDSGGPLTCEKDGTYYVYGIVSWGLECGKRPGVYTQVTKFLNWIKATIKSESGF
T1 sequence (Q14520 24-313 partner limits assumed): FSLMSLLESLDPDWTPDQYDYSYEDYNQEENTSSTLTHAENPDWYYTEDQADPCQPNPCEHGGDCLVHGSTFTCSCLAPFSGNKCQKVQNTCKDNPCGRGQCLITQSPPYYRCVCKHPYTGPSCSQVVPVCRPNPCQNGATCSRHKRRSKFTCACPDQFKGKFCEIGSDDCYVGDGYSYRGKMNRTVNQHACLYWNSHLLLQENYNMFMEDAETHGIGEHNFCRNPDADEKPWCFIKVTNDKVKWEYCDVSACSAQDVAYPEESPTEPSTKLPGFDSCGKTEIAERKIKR
Experimental: The kinetics of enzyme-inhibitor interaction was investigated by measuring enzyme activity as a function of the amount of inhibitor. In the tc-FSAP inhibition assays, constant amounts of enzyme (tc-FSAP, μg/mL) were preincubated with variable inhibitor concentrations (aprotinin from bovine lung, Fluka), to enable formation of the enzyme-inhibitor complex. Another assay was carried out without preincubation. The remaining protease activity was determined after adding the peptide substrate, as described in example 1.
120 μL test buffer pH 6.3, 10 μL anti-FSAP Chemibeads (200 μg/mL in test buffer), 10 μL purified tc-FSAP (10 μg/mL) and 10 μL test buffer with 0, 4.7 and 47.2 U/mL aprotinin were mixed in DIMENSION VISTA® LOCI® reaction cuvettes. Addition of 10 μL of biotinylated peptide substrate IV in test buffer and 10 μL Sensibeads (400 μg/mL in test buffer) took place without preincubation or after 10 minutes of preincubation at 37° C. The resultant LOCI® signal was measured kinetically, over a period of 15 minutes at 37° C., in a commercially available DIMENSION VISTA® LOCI® measuring unit (Siemens Healthcare Diagnostics Products GmbH) with 200 ms illumination at 680 nm and 1000 ms measuring time at 612 nm.
Another inhibitor used was a monoclonal antibody that inhibits FSAP activity (Siemens Healthcare Diagnostics Products GmbH, MAk No. 1102/570), which is directed against the light chain of FSAP and is formed by the hybridoma cell line DSM ACC2533 (see EP-A2-1334983), similarly to the assay with aprotinin.

FSAP in plasma = biological target: T2, FSAP in plasma (Homo sapiens, UniProt Q14520); assay: Activation of FSAP in citrate plasma with dextran sulfate as cofactor, LOCI signal; assay type: biochemical; conditions: Test buffer with DXS 20 μg/mL
T2 construct: from tissue; host or cells: citrate plasma
T2 sequence (Q14520 24-313): as the sequence (Q14520 24-313 partner limits assumed) above
T2 sequence (Q14520 314-560): as the sequence (Q14520 314-560 limits assumed) above
Experimental: Activation in the presence of dextran sulfate leads to a different signal height and signal dynamics versus the same sample, with the same FSAP concentration, but without activation by dextran sulfate (Table 4 and FIG. 2). The signal height produced by activation of the FSAP roughly corresponds to the signal of a purified tc-FSAP of equal concentration of 12 μg/mL with an enzyme activity of 1 PEU/mL (not shown).

| Substance | signal (tc-FSAP; Aprotinin 4.7 U/mL, with 10 min preincubation) [kcounts] | signal (tc-FSAP; Aprotinin 4.7 U/mL, without preincubation) [kcounts] | signal (tc-FSAP; Aprotinin 47.3 U/mL, with 10 min preincubation) [kcounts] | signal (tc-FSAP; Aprotinin 47.3 U/mL, without preincubation) [kcounts] | Effect on LOCI signal of tc-FSAP (in words) (tc-FSAP; mainly after preincubation with tc-FSAP) | signal (FSAP in plasma; MW ≧ 500 kDa, peptide 10 μg/mL, incubation time 5 at +37° C.) [kcounts] | signal (FSAP in plasma; MW ≧ 500 kDa, peptide 10 μg/mL, incubation time 10 at +37° C.) [kcounts] | signal (FSAP in plasma; MW ≧ 500 kDa, peptide 10 μg/mL, incubation time 15 at +37° C.) [kcounts] | signal (FSAP in plasma; peptide 0 μg/mL, incubation time 5 at +37° C.) [kcounts] | signal (FSAP in plasma; peptide 0 μg/mL, incubation time 10 at +37° C.) [kcounts] | signal (FSAP in plasma; peptide 0 μg/mL, incubation time 15 at +37° C.) [kcounts] |
| --- | --- | --- | --- | --- | --- | --- | --- | --- | --- | --- | --- |
| aprotinin | 15.03 | 71.18 | 11.77 | 67.8 | strong signal-reducing effect | – | – | – | – | – | – |
| dextran sulfate sodium salt [DXS] | – | – | – | – | – | 50.303 | 106.500 | 118.096 | 1.166 | 1.220 | 1.204 |
